Reference: patent publication US20250034135A1, “ANTI-APOPTOTIC PROTEIN BCL-2 INHIBITOR, PHARMACEUTICAL COMPOSITION AND USES THEREOF” (HANGZHOU HEALZEN THERAPEUTICS CO., LTD., priority 2021, published 2025)
Like-named read-outs stand apart in the source and are kept apart here.

Legend:
BCL2 (D103Y) = BCL2 (D103Y) (Homo sapiens (Human), UniProt P10415, D103Y); experiment: Molecular level activity test of BCL2 (D103Y) (HTRF, binding to Bim peptide); details: read-out: BCL-2 (D103Y) (nM) (inhibitory activity, IC50)
How it was run: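 His-tagged recombinant protein mixed with biotinylated BIM peptide and compound (2% DMSO), reacted 1 h. Anti-His and streptavidin-XL665 detection reagents then added and incubated 4 h at room temperature before HTRF read-out of binding inhibition.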

BCL2 (G101V) = BCL2 (G101V) (Homo sapiens (Human), UniProt P10415, G101V); experiment: Molecular level activity test of anti-apoptotic protein BCL2 (G101V) (HTRF, binding to Bim peptide); details: inhibition of BCL2 (G101V) binding to Bim peptide, read-out: BCL-2 (G101V)
How it was run: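 His-tagged recombinant BCL2 (G101V) incubated 1 h with biotin-BIM peptide and compound (2% DMSO), then anti-His and streptavidin-XL665 detection reagents added for 4 h at room temperature. HTRF signal reflects compound effect on BCL2–BIM binding.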

human CYP3A4 enzyme [1] = molecular target: T1, human CYP3A4 enzyme (Homo sapiens (Human), UniProt P08684); experiment: CYP3A4 enzyme inhibitory activity (Vivid CYP3A4 Green screening kit); details: read-out: CYP3A4 (IC50); Vivid CYP3A4 Green screening kit
T1 sequence (P08684 whole entry): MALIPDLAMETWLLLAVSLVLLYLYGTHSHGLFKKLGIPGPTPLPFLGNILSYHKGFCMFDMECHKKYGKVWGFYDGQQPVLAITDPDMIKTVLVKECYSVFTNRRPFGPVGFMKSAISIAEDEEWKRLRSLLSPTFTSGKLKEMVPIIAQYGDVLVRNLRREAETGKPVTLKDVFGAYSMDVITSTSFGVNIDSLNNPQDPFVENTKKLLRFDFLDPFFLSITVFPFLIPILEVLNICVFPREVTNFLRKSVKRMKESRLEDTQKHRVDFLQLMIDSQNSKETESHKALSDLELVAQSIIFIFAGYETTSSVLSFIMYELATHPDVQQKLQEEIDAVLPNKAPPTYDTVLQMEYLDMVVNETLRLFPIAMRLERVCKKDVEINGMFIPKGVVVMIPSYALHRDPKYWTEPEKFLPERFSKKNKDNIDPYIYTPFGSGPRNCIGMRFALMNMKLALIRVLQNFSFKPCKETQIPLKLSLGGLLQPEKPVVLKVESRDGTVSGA
Experimental: (§1) The inhibitory activity of compounds on human CYP3A4 enzyme was detected using a VIVID™ CYP3A4 GREEN SCRNING KIT reagent kit. The Vivid™ CYP450 screening kit includes a Vivid™ substrate, Vivid™ fluorescence standard, reaction buffer, Vivid™ regeneration system, NADP+ and CYP450 BACULOSOMES™ Plus reagent. Operations were performed following the instructions, and a blank control group was set up without adding any compounds.
(§2) The IC50 value of the compounds inhibiting human CYP3A4 enzyme was calculated using Graphpad Prism 7.00 software through the formula Y=100/(1+10^((Log IC50−X)*HillSlope)).

BCL2 = BCL2 (Homo sapiens (Human), UniProt P10415); experiment: Molecular level activity test of anti-apoptotic protein BCL2 (HTRF, binding to Bim peptide); details: HTRF, binding of BCL2 to Bim peptide; read-out: BCL2 nM (inhibitory activity, IC50)
How it was run: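 Signal comes from proximity of anti-His-labelled BCL2 and streptavidin-XL665-bound biotin-BIM peptide. Test compounds, added in 2% DMSO, were preincubated with protein and peptide for one hour; detection reagents then incubated four hours at room temperature before reading.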

Rat absorption test = details: Sprague-Dawley, plasma, po, 10 mg/kg
Experimental: (§3) Experimental method: SD rats were used as experimental animals and administered 10 mg/kg by gavage. The blood collection time points for gavage administration were 0, 0.5, 1, 2, 3, 4, 6, 8, and 24 hours. 3 mL of whole blood was collected, and after centrifugation, 1 mL of plasma was taken for LC-MS analysis.

RS4; 11 cells [2] = experiment: In vivo anti-tumor efficacy, RS4; 11 subcutaneous transplanted tumor model; details: 11 transplanted tumor, NOD/SCID mice, after 8 days
Source text: Tumor models were established by subcutaneous inoculation of RS4; 11 cells into NOD/SCID mice. When the tumors grew to about 100 mm^3, the mice were divided into groups and administered as follows: The control group was given a corresponding volume of CMC-Na solution by gavage; […]; the weight and tumor size changes of the mice were weighed twice a week, and after 8 days, the efficacy of the compounds on RS4; 11 mice transplanted tumors was investigated.
The relative tumor proliferation rate T/C %=TRTV/CRTV×100% (TRTV: average RTV of the treatment group; CRTV: average RTV of the negative control group). Based on the results of tumor measurements, the relative tumor volume (RTV) was calculated using the formula RTV=Vt/V0, where V0 was the tumor volume measured during group division (i.e. D0), Vt was the tumor volume at a certain measurement, and TRTV and CRTV used the data of the same day.

RS4; 11 cells [3] = experiment: Tumor proliferation inhibitory activity test (MTS) on RS4; 11; type: cell-based; details: 3 days incubation
How it was run: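 RS4;11 cells were exposed to serially diluted compound (0.2% DMSO control) for 3 days at 37 °C/5% CO2, followed by MTS for 3–4 h. Read-out was OD490−OD690, and inhibition was calculated relative to the DMSO and blank wells.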

Canine absorption test = details: Beagle dogs, 5 mg/kg by gavage
Experimental: (§4) Experimental method: Beagle dogs were used as experimental animals and administered 5 mg/kg by gavage. The blood collection time points for gavage administration were 0, 0.5, 1, 2, 3, 4, 6, 8, and 24 hours. 3 mL of whole blood was collected, and after centrifugation, plasma was taken for LC-MS analysis.

human platelets = experiment: Platelet viability test (CTG); type: cell-based; details: CTG after 24 h
Experimental: After 10 mL of platelet-rich plasma was added to 30 mL of ACD-A solution and uniformly mixed, centrifugation was performed at 1200 g, and the supernatant was discarded; 10 mL of ACD-A solution was added, resuspended, uniformly mixed, and centrifuged at 1200 g for 10 min, and the supernatant was discarded. 5 mL of HEPES-Tyrode's buffer containing 1 μM PGE1 and 0.2 U/mL apyrase was added, slightly inverted, and then centrifuged at 800 g for 5 min, and the supernatant was discarded. 10 mL of HEPES-Tyrode's buffer containing 1 μM PGE1 and 0.2 U/mL apyrase was added, resuspended, and centrifuged at 1000 g for 5 min, and the supernatant was discarded. 2 mL of HEPES-Tyrode's buffer containing 1 μM PGE1+10% FBS-resuspended platelets was added, 200 μL was taken into a centrifuge tube and diluted to 2 mL. Then it was diluted to 1, 0.8, 0.6, 0.4, 0.2, 0.1, 0.08, 0.06, 0.04, 0.02, 0.01 times, the volume was complemented to 100 μL, and 50 μL of CTG reagent was added to detect cell viability. The maximum valid dilution with a fluorescence value not exceeding […] was selected for dilution, 90 μL/well was connected to a 96-well cell plate for chemiluminescence detection. A compound was prepared with HEPES-Tyrode's buffer containing 1 μM of PGE1+10% FBS, and added to the cells, which was gently beaten evenly and detected for cell viability by adding 50 μL CTG after 24 h.

BCL-XL = BCL-XL (Homo sapiens (Human), UniProt Q07817); experiment: BCL-XL enzyme molecular level activity test (HTRF, binding to BIM peptide); details: binding of BCL-XL to BIM peptide, read-out: BCL-XL inhibitory activity (IC50)
Sequence of BCL-XL (Q07817 whole entry): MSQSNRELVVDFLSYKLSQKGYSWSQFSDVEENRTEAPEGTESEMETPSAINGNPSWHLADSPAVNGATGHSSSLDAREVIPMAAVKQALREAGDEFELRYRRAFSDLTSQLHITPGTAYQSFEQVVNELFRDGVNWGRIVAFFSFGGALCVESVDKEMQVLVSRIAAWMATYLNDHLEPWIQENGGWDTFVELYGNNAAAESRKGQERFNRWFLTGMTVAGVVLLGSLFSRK
How it was run: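 HTRF binding assay: His-tagged recombinant BCL-XL with biotin-BIM peptide and compound (2% DMSO), 1 h. Anti-His and streptavidin-XL665 detection reagents added, 4 h at room temperature. Excitation 320 nm; 665/615 nm ratio reflects binding, with no-protein background and no-compound full-binding controls.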

[4] = beagle, dog, in vivo, 5 mg/kg
Experimental: as §4

human CYP3A4 enzyme [5] = molecular target: T1, human CYP3A4 enzyme
Experimental: as §1, §2

in vivo = details: Sprague-Dawley, rat, po, 10 mg/kg
Experimental: as §3

Row | Compound | IC50 (BCL2 (D103Y)) [nM] | IC50 (BCL2 (G101V)) [nM] | IC50 (human CYP3A4 enzyme [1]) [nM] | IC50 (BCL2) [nM] | AUC (Rat absorption test) [ng·h/mL] | T/C % (RS4; 11 cells [2]; 15 mg/kg by gavage) [%] | IC50 (RS4; 11 cells [3]; Homo sapiens, RS4-11, 72 h) [nM] | DNAUC (Canine absorption test) | IC50 (human platelets) [nM] | IC50 (BCL-XL; values in nM) [nM] | T/C % (RS4; 11 cells [2]; 5 mg/kg by gavage) [%] | DNAUC [4] | IC50 (human CYP3A4 enzyme [5]) [nM] | AUC (in vivo) [ng·h/mL] | IC50 (BCL-XL; values given in μM) [nM] | IC50 (RS4; 11 cells [3]) [nM]
1 | COc1ccc(CN2CCN(C3CC4(CCN(c5ccc(C(=O)NS(=O)(=O)c6cc([N+](=O)[O-])c(NCC7(F)CCOCC7)c7[nH]cnc67)c(Oc6cnc7[nH]ccc7c6)c5)CC4)C3)[C@H](c3ccccc3C(C)C)C2)cc1 [compound 261, (R)-2-((1H-pyrrolo[2,3-b]pyrid-5-yl)oxy)-N-((7-(((4-fluorotetrahydro-2H-pyran-4-yl)methyl)amino)-6-nitro-1H-benzo[d]imidazol-4-yl)sulfonyl)-4-(2-(2-(2-isopropylphenyl)-4-(4-methoxybenzyl)piperazin-1-yl)-7-azaspiro[3.5]non-7-yl)benzamide] | < 10 | < 10 | > 20000 | < 10 | 1210 | 5.35 | < 0.5 | – | – | – | – | – | – | – | – | –
2 | COc1ccc(CN2CCN(C3CC4(CCN(c5cc(Oc6cnc7[nH]ccc7c6)c(C(=O)NS(=O)(=O)c6ccc(NC[C@H]7CC[C@](C)(O)CC7)c([N+](=O)[O-])c6)cc5F)CC4)C3)[C@H](c3ccccc3C(C)C)C2)cc1 [compound 234] | < 10 | < 10 | > 20000 | < 10 | 5630 | – | < 0.5 | 9103 AUC (h*ng/mL)/dose (mg/kg) | > 5000 | > 500 | 1.26 | – | – | – | – | –
3 | COc1ccc(CN2CCN(C3CC4(CCN(c5cc(Oc6cnc7[nH]ccc7c6)c(C(=O)NS(=O)(=O)c6ccc(NC[C@H]7CC[C@](C)(O)CC7)c([N+](=O)[O-])c6)cn5)CC4)C3)[C@H](c3ccccc3C(C)C)C2)cc1 [compound 256, 4-((1H-pyrrolo[2,3-b]pyrid-5-yl)oxy)-N-((4-((((1r, 4r)-4-hydroxy-4-methylcyclohexyl)methyl)amino)-3-nitrophenyl)sulfonyl)-6-(2-((R)-2-(2-isopropylphenyl)-4-(4-methoxybenzyl)piperazin-1-yl)-7-azaspiro[3.5]non-7-yl) nicotinamide] | < 10 | < 10 | > 20000 | < 10 | 1800 | – | < 0.5 | – | – | – | – | – | – | – | – | –
4 | COc1ccc(CN2CCN(C3CC4(CCN(c5cc(Oc6cnc7[nH]ccc7c6)c(C(=O)NS(=O)(=O)c6ccc(NCC7(F)CCOCC7)c([N+](=O)[O-])c6)cc5F)CC4)C3)[C@H](c3ccccc3C(C)C)C2)cc1 [compound 152, (R)-2-((1H-pyrrolo[2,3-b]pyrid-5-yl)oxy)-5-fluoro-N-((4-(((4-fluorotetrahydro-2H-pyran-4-yl)methyl)amino)-3-nitrophenyl)sulfonyl)-4-(2-(2-(2-isopropylphenyl)-4-(4-methoxybenzyl)piperazin-1-yl)-7-azaspiro[3.5]non-7-yl)benzamide] | – | – | – | – | – | – | – | – | – | – | – | 13685 AUC (h*ng/mL)/dose (mg/kg) | > 20000 | 3330 | – | –
5 | COc1ccc(CN2CCN(C3CC4(CCN(c5cc(Oc6cnc7[nH]ccc7c6)c(C(=O)NS(=O)(=O)c6cc([N+](=O)[O-])c(NC[C@H]7CC[C@](C)(O)CC7)c7[nH]cnc67)cn5)CC4)C3)[C@H](c3ccccc3C(C)C)C2)cc1 [compound 266, 4-((1H-pyrrolo[2,3-b]pyrid-5-yl)oxy)-N-((7-((((1r,4r)-4-hydroxy-4-methylcyclohexyl)methyl)amino)-6-nitro-1H-benzo[d]imidazol-4-yl)sulfonyl)-6-(2-((R)-2-(2-isopropylphenyl)-4-(4-methoxybenzyl)piperazin-1-yl)-7-azaspiro[3.5]non-7-yl) nicotinamide] | < 10 | < 10 | > 20000 | < 10 | – | – | < 0.5 | – | – | – | 15.38 | – | – | – | – | –
6 | COc1ccc(CN2CCN(C3CC4(CCN(c5cc(Oc6cnc7[nH]ccc7c6)c(C(=O)NS(=O)(=O)c6ccc(NCC7(F)CCOCC7)c([N+](=O)[O-])c6)cc5F)CC4)C3)[C@H](c3ccccc3C(C)C)C2)cc1OC [compound 197, (R)-2-((1H-pyrrolo[2,3-b]pyrid-5-yl)oxy)-4-(2-(4-(3,4-dimethoxybenzyl)-2-(2-isopropylphenyl)piperazin-1-yl)-7-azaspiro[3.5]non-7-yl)-5-fluoro-N-((4-(((4-fluorotetrahydro-2H-pyran-4-yl)methyl)amino)-3-nitrophenyl)sulfonyl)benzamide] | < 10 | < 10 | > 20000 | < 10 | – | – | < 0.5 | – | > 5000 | – | – | – | – | – | > 1000 | –
7 | COc1ccc(CN2CCN(C3CC4(CCN(c5cc(Oc6cnc7[nH]ccc7c6)c(C(=O)NS(=O)(=O)c6ccc(NCC7(F)CCOCC7)c([N+](=O)[O-])c6)cc5F)CC4)C3)[C@H](c3ccccc3C(C)C)C2)cn1 [compound 242, (R)-2-((1H-pyrrolo[2,3-b]pyrid-5-yl)oxy)-5-fluoro-N-((4-(((4-fluorotetrahydro-2H-pyran-4-yl)methyl)amino)-3-nitrophenyl)sulfonyl)-4-(2-(2-(2-isopropylphenyl)-4-((6-methoxypyrid-3-yl)methyl)piperazin-1-yl)-7-azaspiro[3.5]non-7-yl)benzamide] | < 10 | < 10 | > 20000 | < 10 | – | – | < 0.5 | – | > 5000 | > 500 | – | – | – | – | – | –
8 | (R)-2-((1H-pyrrolo[2,3-b]pyrid-5-yl)oxy)-5-fluoro-N-((4-(((4-fluorotetrahydro-2H-pyran-4-yl)methyl)amino)-3-nitrophenyl)sulfonyl)-4-(2-(2-(2-isopropylphenyl)-4-(4-methoxybenzyl)piperazin-1-yl)-7-azaspiro[3.5]non-7-yl)benzamide [compound 152] | < 10 | < 10 | – | < 10 | – | – | – | – | > 5000 | – | 0.35 | – | – | – | > 1000 | < 0.5
